Data reported in patent publication US20120122860A1, “SOLID FORMS OF SULFONAMIDES AND AMINO ACIDS” (Plexxikon, Inc., priority 2009, published 2012).

Assays:
C-Raf = C-Raf (Homo sapiens, UniProt P04049); experiment: Kinase activity assay, C-Raf
B-Raf V600E = B-Raf V600E (Homo sapiens, UniProt P15056, V600E); experiment: Kinase activity assay, B-Raf V600E; assay type: biochemical; conditions: read-out: activity toward kinase B-Raf V600E, IC50
B-Raf = B-Raf (Homo sapiens, UniProt P15056); experiment: Kinase activity assay, B-Raf; assay type: biochemical; conditions: read-out: activity toward kinase B-Raf, IC50
Btk = Btk (Homo sapiens, UniProt Q06187); experiment: Kinase activity assay, Btk
Src = Src (Homo sapiens, UniProt P12931); experiment: Kinase activity assay, Src
TEC = biological target: T1, TEC (Homo sapiens, UniProt P42680); experiment: Kinase activity assay, TEC
T1 sequence (P42680 1-631): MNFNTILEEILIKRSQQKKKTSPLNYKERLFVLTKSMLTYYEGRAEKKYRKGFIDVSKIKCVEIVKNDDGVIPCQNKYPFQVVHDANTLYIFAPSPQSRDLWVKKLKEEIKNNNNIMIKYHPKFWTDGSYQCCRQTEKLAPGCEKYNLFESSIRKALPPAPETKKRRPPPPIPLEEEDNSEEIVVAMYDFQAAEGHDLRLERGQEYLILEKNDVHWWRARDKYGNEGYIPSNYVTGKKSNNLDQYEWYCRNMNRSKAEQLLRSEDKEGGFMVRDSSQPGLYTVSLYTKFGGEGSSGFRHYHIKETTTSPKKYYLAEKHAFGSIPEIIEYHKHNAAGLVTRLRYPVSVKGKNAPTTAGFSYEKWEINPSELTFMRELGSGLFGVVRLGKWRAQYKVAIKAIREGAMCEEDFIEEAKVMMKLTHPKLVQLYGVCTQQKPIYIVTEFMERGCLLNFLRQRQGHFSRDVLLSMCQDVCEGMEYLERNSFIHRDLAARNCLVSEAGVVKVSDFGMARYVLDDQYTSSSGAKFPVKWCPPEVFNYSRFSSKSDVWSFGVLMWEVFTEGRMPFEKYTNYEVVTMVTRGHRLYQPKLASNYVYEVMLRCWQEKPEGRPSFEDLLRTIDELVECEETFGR

PI3Kα = PI3Kα (Homo sapiens, UniProt P42336); experiment: Kinase activity assay, PI3Kα
Kit = Kit (Homo sapiens, UniProt P10721); experiment: Kinase activity assay, Kit
Kdr = Kdr (Homo sapiens, UniProt P35968); experiment: Kinase activity assay, Kdr
Fms = Fms (Homo sapiens, UniProt P07333); experiment: Kinase activity assay, Fms
MAP4K4 = MAP4K4 (Homo sapiens, UniProt O95819); experiment: Kinase activity assay, MAP4K4

Measured: IC50

Chain of Kit (P10721 26-976): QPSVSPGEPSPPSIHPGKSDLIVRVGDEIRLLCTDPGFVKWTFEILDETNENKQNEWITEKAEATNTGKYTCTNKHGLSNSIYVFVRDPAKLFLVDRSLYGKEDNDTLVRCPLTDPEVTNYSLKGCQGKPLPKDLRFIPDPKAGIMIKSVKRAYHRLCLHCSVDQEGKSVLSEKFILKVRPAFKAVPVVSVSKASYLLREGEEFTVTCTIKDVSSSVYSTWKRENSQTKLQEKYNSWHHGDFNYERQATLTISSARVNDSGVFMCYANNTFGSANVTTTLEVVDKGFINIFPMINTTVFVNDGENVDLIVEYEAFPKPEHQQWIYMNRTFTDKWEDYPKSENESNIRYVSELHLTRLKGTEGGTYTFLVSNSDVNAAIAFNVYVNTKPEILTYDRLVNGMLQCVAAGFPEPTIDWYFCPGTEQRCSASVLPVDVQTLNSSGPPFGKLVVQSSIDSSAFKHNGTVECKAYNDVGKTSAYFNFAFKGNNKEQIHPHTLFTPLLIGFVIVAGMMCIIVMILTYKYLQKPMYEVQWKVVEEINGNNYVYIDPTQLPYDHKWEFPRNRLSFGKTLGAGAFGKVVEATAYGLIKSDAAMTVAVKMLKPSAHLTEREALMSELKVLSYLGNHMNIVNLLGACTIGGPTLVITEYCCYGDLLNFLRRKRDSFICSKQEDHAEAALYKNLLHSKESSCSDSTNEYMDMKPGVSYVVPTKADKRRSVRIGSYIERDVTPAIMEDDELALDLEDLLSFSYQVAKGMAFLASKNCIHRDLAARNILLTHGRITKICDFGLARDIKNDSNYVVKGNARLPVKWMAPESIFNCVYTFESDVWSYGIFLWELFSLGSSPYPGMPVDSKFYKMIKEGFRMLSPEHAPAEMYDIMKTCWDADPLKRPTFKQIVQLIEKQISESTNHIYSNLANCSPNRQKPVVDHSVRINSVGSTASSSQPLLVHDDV
Chain of PI3Kα (P42336 whole entry): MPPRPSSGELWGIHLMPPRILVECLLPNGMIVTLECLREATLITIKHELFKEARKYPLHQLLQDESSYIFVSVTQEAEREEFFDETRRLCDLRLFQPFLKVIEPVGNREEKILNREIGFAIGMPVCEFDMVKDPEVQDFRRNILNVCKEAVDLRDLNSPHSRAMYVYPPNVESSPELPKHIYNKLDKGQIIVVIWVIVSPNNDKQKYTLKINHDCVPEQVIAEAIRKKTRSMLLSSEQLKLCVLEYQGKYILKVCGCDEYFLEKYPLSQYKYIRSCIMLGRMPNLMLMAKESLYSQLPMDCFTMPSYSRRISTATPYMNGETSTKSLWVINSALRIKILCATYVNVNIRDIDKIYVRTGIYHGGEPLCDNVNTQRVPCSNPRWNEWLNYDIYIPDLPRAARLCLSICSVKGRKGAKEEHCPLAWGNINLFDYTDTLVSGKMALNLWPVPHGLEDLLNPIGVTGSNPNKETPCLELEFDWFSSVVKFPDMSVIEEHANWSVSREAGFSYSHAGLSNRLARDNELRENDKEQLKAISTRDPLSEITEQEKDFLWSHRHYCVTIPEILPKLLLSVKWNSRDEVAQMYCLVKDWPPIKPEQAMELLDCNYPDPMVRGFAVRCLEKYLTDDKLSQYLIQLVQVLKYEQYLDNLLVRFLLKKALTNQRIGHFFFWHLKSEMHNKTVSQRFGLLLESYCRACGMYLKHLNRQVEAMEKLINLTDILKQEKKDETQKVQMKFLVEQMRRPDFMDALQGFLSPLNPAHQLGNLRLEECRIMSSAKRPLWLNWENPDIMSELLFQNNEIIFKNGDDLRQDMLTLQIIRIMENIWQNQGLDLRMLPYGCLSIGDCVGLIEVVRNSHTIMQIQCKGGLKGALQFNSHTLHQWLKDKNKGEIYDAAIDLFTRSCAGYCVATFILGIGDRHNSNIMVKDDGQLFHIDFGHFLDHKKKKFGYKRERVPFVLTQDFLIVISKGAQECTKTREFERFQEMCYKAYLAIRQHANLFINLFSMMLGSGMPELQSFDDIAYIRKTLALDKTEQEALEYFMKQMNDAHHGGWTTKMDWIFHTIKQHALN
Chain of PI3Kα (P27986 whole entry partner): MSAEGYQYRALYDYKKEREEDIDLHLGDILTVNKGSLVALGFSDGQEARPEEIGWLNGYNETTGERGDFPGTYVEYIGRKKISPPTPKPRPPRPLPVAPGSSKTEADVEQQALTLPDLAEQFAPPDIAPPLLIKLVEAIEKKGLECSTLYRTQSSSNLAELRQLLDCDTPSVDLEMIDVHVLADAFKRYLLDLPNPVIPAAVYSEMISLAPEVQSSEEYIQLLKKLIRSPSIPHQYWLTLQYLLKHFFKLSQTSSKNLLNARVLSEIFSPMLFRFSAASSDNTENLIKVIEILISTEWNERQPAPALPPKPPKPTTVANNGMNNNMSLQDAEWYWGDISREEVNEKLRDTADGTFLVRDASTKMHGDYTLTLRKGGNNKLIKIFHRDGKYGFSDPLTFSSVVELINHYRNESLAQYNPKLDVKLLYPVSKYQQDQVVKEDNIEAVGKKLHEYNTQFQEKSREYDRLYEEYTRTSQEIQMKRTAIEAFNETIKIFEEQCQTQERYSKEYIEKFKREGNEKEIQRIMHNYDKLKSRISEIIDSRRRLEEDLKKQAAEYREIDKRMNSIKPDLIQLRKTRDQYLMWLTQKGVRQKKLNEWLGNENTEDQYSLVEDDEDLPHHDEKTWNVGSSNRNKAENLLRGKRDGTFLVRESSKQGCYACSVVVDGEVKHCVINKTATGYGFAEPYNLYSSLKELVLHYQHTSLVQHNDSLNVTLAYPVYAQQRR
Chain of Src (P12931 whole entry): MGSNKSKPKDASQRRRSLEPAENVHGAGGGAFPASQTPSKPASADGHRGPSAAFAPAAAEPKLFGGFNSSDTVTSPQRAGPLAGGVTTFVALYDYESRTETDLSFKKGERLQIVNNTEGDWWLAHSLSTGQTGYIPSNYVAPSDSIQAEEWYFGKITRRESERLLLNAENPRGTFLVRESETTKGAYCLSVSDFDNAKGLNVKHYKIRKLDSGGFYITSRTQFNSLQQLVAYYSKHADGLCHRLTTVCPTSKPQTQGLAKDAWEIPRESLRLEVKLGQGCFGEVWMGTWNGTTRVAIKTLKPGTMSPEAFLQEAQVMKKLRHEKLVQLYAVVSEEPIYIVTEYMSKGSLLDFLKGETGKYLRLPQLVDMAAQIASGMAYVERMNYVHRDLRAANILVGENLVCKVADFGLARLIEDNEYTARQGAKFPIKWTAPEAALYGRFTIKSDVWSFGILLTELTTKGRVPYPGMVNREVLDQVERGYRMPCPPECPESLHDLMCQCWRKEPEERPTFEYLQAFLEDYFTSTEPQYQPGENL
Chain of C-Raf (P04049 whole entry): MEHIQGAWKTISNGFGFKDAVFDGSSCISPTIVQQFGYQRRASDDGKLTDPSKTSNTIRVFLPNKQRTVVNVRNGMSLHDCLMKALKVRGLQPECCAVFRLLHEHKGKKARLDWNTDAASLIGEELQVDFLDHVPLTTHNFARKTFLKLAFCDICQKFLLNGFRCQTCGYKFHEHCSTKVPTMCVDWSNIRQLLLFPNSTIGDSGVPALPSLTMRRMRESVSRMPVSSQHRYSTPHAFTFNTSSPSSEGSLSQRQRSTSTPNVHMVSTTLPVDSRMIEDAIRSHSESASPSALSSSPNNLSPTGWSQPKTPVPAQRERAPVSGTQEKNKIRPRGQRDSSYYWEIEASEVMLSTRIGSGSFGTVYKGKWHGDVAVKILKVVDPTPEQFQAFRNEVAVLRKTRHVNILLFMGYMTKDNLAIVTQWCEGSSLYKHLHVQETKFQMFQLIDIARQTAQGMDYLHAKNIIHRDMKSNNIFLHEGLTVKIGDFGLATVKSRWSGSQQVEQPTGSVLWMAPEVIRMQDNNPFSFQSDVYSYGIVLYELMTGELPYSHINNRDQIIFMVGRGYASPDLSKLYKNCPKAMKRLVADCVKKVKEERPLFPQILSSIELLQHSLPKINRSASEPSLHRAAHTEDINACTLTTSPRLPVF
Chain of B-Raf V600E (P15056 whole entry V600E): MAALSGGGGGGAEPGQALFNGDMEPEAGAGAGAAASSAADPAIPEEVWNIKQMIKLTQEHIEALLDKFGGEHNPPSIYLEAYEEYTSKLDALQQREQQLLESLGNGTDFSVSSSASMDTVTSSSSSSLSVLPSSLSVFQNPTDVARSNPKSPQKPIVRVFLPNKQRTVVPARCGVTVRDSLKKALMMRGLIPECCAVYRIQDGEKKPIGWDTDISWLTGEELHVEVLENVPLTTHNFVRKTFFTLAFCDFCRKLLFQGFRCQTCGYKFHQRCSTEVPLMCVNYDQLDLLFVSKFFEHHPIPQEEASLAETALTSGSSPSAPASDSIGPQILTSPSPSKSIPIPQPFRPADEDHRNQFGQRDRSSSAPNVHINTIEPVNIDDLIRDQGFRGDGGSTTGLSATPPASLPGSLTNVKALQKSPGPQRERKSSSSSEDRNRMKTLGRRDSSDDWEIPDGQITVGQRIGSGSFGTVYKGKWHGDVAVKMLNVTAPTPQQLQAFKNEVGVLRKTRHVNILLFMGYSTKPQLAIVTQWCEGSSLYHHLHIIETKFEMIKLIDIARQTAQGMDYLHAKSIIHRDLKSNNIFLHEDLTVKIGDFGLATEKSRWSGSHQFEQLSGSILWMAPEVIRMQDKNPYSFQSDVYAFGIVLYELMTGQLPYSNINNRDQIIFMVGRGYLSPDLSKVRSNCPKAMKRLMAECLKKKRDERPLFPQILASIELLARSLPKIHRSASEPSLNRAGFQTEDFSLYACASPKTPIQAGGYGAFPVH
Chain of B-Raf (P15056 whole entry): as the sequence (P15056 whole entry V600E) above, with E600V counted along it

COc1ncc(-c2cnc3[nH]cc(C(=O)c4c(F)ccc(NS(=O)(=O)c5ccccc5F)c4F)c3c2)cn1 [P-2041, N-{2,4-Difluoro-3-[5-(2-methoxy-pyrimidin-5-yl)-1H-pyrrolo[2,3-b]pyridine-3-carbonyl]-phenyl}-2-fluoro-benzenesulfonamide]
not listed: Fms | MAP4K4
≤ 10 µM: all other assays above

COc1ncc(-c2cnc3[nH]cc(C(=O)c4c(F)ccc(NS(=O)(=O)c5cc(F)ccc5F)c4F)c3c2)cn1 [P-2042, N-{2,4-Difluoro-3-[5-(2-methoxy-pyrimidin-5-yl)-1H-pyrrolo[2,3-b]pyridine-3-carbonyl]-phenyl}-2,5-difluoro-benzenesulfonamide]
not listed: MAP4K4
≤ 10 µM: all other assays above

COc1ncc(-c2cnc3[nH]cc(C(=O)c4c(F)ccc(NS(=O)(=O)c5cccc(F)c5)c4F)c3c2)cn1 [P-2045, N-{2,4-Difluoro-3-[5-(2-methoxy-pyrimidin-5-yl)-1H-pyrrolo[2,3-b]pyridine-3-carbonyl]-phenyl}-3-fluoro-benzenesulfonamide]
not listed: Kit | Kdr | Fms | MAP4K4
≤ 10 µM: all other assays above

COc1ncc(-c2cnc3[nH]cc(C(=O)c4c(F)ccc(NS(=O)(=O)c5ccccn5)c4F)c3c2)cn1 [P-2079]
not listed: Kit | Fms | MAP4K4
≤ 10 µM: all other assays above

COc1ncc(-c2cnc3[nH]cc(C(=O)c4c(F)ccc(NS(=O)(=O)c5ncn[nH]5)c4F)c3c2)cn1 [P-2080]
not listed: Kit | Fms | MAP4K4
≤ 10 µM: all other assays above

NC(=O)c1cccc(-c2cnc3[nH]cc(C(=O)c4cccc(NS(=O)(=O)c5cccnc5)c4)c3c2)c1 [P-2147, 3-{3-[3-(Pyridine-3-sulfonylamino)-benzoyl]-1H-pyrrolo[2,3-b]pyridin-5-yl}-benzamide]
not listed: TEC | Fms
≤ 10 µM: all other assays above

CCS(=O)(=O)Nc1ccc(F)c(C(=O)c2c[nH]c3ncc(-c4cnc(OC)nc4)cc23)c1F [P-2286, Ethanesulfonic acid {2,4-difluoro-3-[5-(2-methoxy-pyrimidin-5-yl)-1H-pyrrolo[2,3-b]pyridine-3-carbonyl]-phenyl}-amide]
not listed: TEC | Kit | Fms | MAP4K4
≤ 10 µM: all other assays above

COc1ncc(-c2cnc3[nH]cc(C(=O)c4c(F)ccc(NS(=O)(=O)C(C)C)c4F)c3c2)cn1 [P-2287, Propane-2-sulfonic acid {2,4-difluoro-3-[5-(2-methoxy-pyrimidin-5-yl)-1H-pyrrolo[2,3-b]pyridine-3-carbonyl]-phenyl}-amide]
not listed: Kit | Fms | MAP4K4
≤ 10 µM: all other assays above

COc1ncc(-c2cnc3[nH]cc(C(=O)c4c(F)ccc(NS(C)(=O)=O)c4F)c3c2)cn1 [P-2295, N-{2,4-Difluoro-3-[5-(2-methoxy-pyrimidin-5-yl)-1H-pyrrolo[2,3-b]pyridine-3-carbonyl]-phenyl}-methanesulfonamide]
≤ 10 µM: C-Raf | B-Raf V600E | B-Raf | Btk | PI3Kα | Kdr

CCC(C)S(=O)(=O)Nc1ccc(F)c(C(=O)c2c[nH]c3ncc(-c4cnc(OC)nc4)cc23)c1F (stereo not shown) [P-2323, Butane-2-sulfonic acid {2,4-difluoro-3-[5-(2-methoxy-pyrimidin-5-yl)-1H-pyrrolo[2,3-b]pyridine-3-carbonyl]-phenyl}-amide]
not listed: Kit | Fms | MAP4K4
≤ 10 µM: all other assays above

COc1ncc(-c2cnc3[nH]cc(C(=O)c4c(F)ccc(NS(=O)(=O)C5CCCC5)c4F)c3c2)cn1 [P-2372, Cyclopentanesulfonic acid {2,4-difluoro-3-[5-(2-methoxy-pyrimidin-5-yl)-1H-pyrrolo[2,3-b]pyridine-3-carbonyl]-phenyl}-amide]
not listed: Fms | MAP4K4
≤ 10 µM: all other assays above

COc1ncc(-c2cnc3[nH]cc(C(=O)c4c(F)ccc(NS(=O)(=O)N(C)C)c4F)c3c2)cn1 [P-2399, N,N-dimethylamino-sulfonic acid {2,4-difluoro-3-[5-(2-methoxy-pyrimidin-5-yl)-1H-pyrrolo[2,3-b]pyridine-3-carbonyl]-phenyl}-amide]
not listed: Kit | Fms | MAP4K4
≤ 10 µM: all other assays above

CCN(CC)S(=O)(=O)Nc1ccc(F)c(C(=O)c2c[nH]c3ncc(-c4cnc(OC)nc4)cc23)c1F [P-2401, N,N-diethylamino-sulfonic acid {2,4-difluoro-3-[5-(2-methoxy-pyrimidin-5-yl)-1H-pyrrolo[2,3-b]pyridine-3-carbonyl]-phenyl}-amide]
not listed: B-Raf | Fms | MAP4K4
≤ 10 µM: all other assays above

COc1ncc(-c2cnc3[nH]cc(C(=O)c4c(F)ccc(NS(=O)(=O)N5CCOCC5)c4F)c3c2)cn1 [P-2402, Morpholine-4-sulfonic acid {2,4-difluoro-3-[5-(2-methoxy-pyrimidin-5-yl)-1H-pyrrolo[2,3-b]pyridine-3-carbonyl]-phenyl}-amide]
not listed: Kit | Kdr | Fms | MAP4K4
≤ 10 µM: all other assays above
